Measured values taken from patent US5936097A, “4,9-ethano-benzo(F)isoindole derivatives as farnesyl transferase inhibitors” (Rhone-Poulenc Rorer, S.A., priority 1995, dated 1999).

target: T1, human farnesyl transferase (Homo sapiens, UniProt P49354+P49356); test: inhibition of farnesyl transferase ((3H) farnesyl transfer from (3H) FPP to p21 H-ras); format: biochemical; details: not given
T1 construct: human farnesyl transferase purified from THP1 cell cultures; endogenous in cells; host or cells: THP1 cell cultures (enzyme purified from the cells)
How it was run: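 Radiometric transfer of [3H]farnesyl from 4.5 pmol [3H]FPP to 200 pmol p21 H-ras by ~5 ng human enzyme purified from THP1 cells, in 50 mM Tris-HCl, 5 mM MgCl2, 5 mM DTT, 0.2% octyl glucoside, 20 min at 37 °C. Protein precipitated with SDS/TCA in methanol, filter-bound counts measured; IC50 from 9 concentrations, triplicate.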

First: COc1ccccc1CC(=O)N1C[C@H]2[C@@]3(c4ccccc4)CC[C@H](c4ccccc43)[C@@]2(C(=O)O)C1 [Example 47, 4,9-ethano-2-[(2-methoxyphenyl)acetyl]-9-phenyl-2,3,3a(S),4(R),9(R),9a(S)-hexahydro-1H-benzo[f]isoindole-3a-carboxylic acid]
Second: CCOc1ccccc1CC(=O)N1C[C@H]2[C@@]3(c4ccccc4)CC[C@H](c4ccccc43)[C@@]2(C(=O)O)C1 [Example 75]
The IC50 of the first is 2.6-fold lower: 0.14 µM for the first, 0.37 µM for the second.

same assay, conditions: human farnesyl transferase purified from THP1 cell cultures; p21 H-ras substrate; 20 minutes at 37° C.; 9 concentrations; read-out: in vitro inhibitory activity IC50

First: COc1ccccc1CC(=O)N1C[C@H]2[C@@]3(c4ccccc4)CC[C@H](c4ccccc43)[C@@]2(CC(=O)NC(CCSC)C(=O)O)C1 (stereo partly drawn) [Example 21, N-[(3aRS, 4SR, 9SR, 9aRS)-4,9-ethano-2-(2-methoxyphenyl)acetyl-9-phenyl-2,3,3a,4,9,9a-hexahydro-1H-benzo[f]isoindole-3a-yl]acetylmethionine]
Second: COc1ccccc1CC(=O)N1CC2C3(c4ccccc4)CCC(c4ccccc43)C2(C(=O)N[C@@H](CCSC)C(=O)O)C1 (stereo partly drawn) [Example 51, N-[(3aRS,4SR,9SR,9aRS)-4,9-ethano-2-(2-methoxy-phenyl)acetyl-9-phenyl-2,3,3a,4,9,9a-hexahydro-1H-benzo[f]isoindol-3a-yl]carbonyl-L-methionine]
The IC50 of the first is 25-fold higher: 3.75 µM for the first, 0.15 µM for the second. The second is the more potent here.

Compared with `C=C(C(=O)N1C[C@H]2[C@@]3(c4ccccc4)CC[C@H](c4ccccc43)[C@@]2(C(=O)O)C1)c1ccccc1OC` [Example 39, (3aS,4R,9R,9aS)-4,9-ethano-2-[2-(2-methoxyphenyl)prop-2-en-1-oyl]-9-phenyl-1,2,3,3a,9,9a-hexahydro-1H-benzo[f]isoindole-3a-carboxylic acid], `C=C(C(=O)N1C[C@H]2[C@@]3(c4ccccc4)CC[C@H](c4ccccc43)[C@@]2(C(=O)NCc2ccccc2)C1)c1ccccc1OC` [Example 71] is 10-fold higher in IC50: 0.05 µM for the first, 0.5 µM for the second. The first is the more potent here.

`COc1ccccc1CC(=O)N1C[C@H]2[C@@]3(c4ccccc4)CC[C@H](c4ccccc43)[C@@]2(C(=O)NCC(=O)O)C1` [Example 48, N-[4,9-ethano-2-(2-methoxyphenyl)acetyl-9-phenyl-2,3,3a(S),4(R),9(R),9a(S)-hexahydro-1H-benzo[f]isoindol-3a-yl]carbonylglycine] and `COc1ccccc1CC(=O)N1CC2C3(c4ccccc4)CCC(c4ccccc43)C2(C(=O)N[C@@H](CS)C(=O)O)C1` (stereo partly drawn) [Example 53, N-[(3aRS,4SR,9SR,9aRS)-4,9-ethano-2-(2-methoxyphenyl)acetyl-9-phenyl-2,3,3a,4,9,9a-hexahydro-1H-benzo[f]isoindol-3a-yl]carbonyl-L-cysteine] are within 1.5-fold of each other in IC50: 0.74 µM for the first, 0.59 µM for the second.

Compared with `COc1ccccc1CC(=O)N1CC2C3(c4ccccc4)CCC(c4ccccc43)C2(C(=O)N[C@@H](CSCc2ccccc2)C(=O)O)C1` (stereo partly drawn) [Example 52, N-[(3aRS,4SR,9SR,9aRS)-4,9-ethano-2-(2-methoxyphenyl)acetyl-9-phenyl-2,3,3a,4,9,9a-hexahydro-1H-benzo[f]isoindol-3a-yl]carbonyl-S-benzyl-L-cysteine], `COc1ccccc1CC(=O)N1C[C@H]2[C@@]3(c4ccccc4)CC[C@H](c4ccccc43)[C@@]2(C(=O)N[C@H](C)c2ccccc2)C1` [Example 57, N-[(R)-1-phenylethyl]-4,9-ethano-2-(2-methoxyphenyl)acetyl-9-phenyl-2,3,3a(S),4(R),9(R),9a(S)-hexahydro-1H-benzo[f]isoindole-3a-carboxamide] is 2-fold higher in IC50: 0.44 µM for the first, 0.86 µM for the second.

Going from `C=C(C(=O)N1C[C@H]2[C@@]3(c4ccccc4)CC[C@H](c4ccccc43)[C@@]2(C(=O)N[C@H](C(=O)OC)c2ccccc2)C1)c1ccccc1OC` [Example 72] to `C=C(C(=O)N1C[C@H]2[C@@]3(c4ccccc4)CC[C@H](c4ccccc43)[C@@]2(C(=O)N[C@H](C(=O)O)c2ccccc2)C1)c1ccccc1OC` [Example 81, N-[(3aS,4R,9R,9aS)-4,9-ethano-2-[(2-methoxy-phenyl)prop-2-en-1-oyl]-9-phenyl-2,3,3a,4,9,9a-hexahydro-1H-benzo[f]isoindol-3a-ylcarboxamide]-(S)-phenylglycine], the IC50 falls from 0.69 µM to 0.05 µM (14-fold). The second is the more potent here.
